Measured values reported in patent publication US20060116390A1, “Hepatitis c virus inhibitors” (priority 2003, published 2006).
Read-outs that look alike come from different tables or passages of the source.

Tested on: HCV proteins in Rep5.1 cells (replicon cell line)
Assay: Inhibitory activity of HCV: cell-based ELISA in replicon cell line Rep5.1 (decrease of HCV proteins)
Design: species or system hepatitis C virus
Settings: Rep5.1 cells, 72 hours with drug
Method in brief: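 Rep5.1 replicon cells (5000/well, DMEM-10 with 500 μg/ml G418) were given serially diluted drug 4 h after seeding. After 72 h, cells were fixed in methanol/acetone and HCV proteins detected by cell-based ELISA using replicon-specific patient plasma antibodies. IC50 is the concentration giving 50% protein decrease versus the no-drug control.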

[1] = Hepatitis C virus, 72 h, concentration at which 50% of HCV proteins was decreased, Table 2, read-out: IC50
[2] = Hepatitis C virus, 72 h, decrease of HCV proteins measured by HCV antibody, Table 1, read-out: Level (IC50 values classified)

Row | Compound | IC50 [1] [nM] | IC50 [2] [nM] | IC50 (concentration at which 50% of HCV proteins was decreased, Table 2, read-out: IC50) [nM]
1 | CCn1c2ccccc2c2cc(COC(=O)C3=C(C)NC(=S)NC3)ccc21 [Compound 147, 6-methyl-2-thioxo-1,2,3,4-tetrahydro-pyrimidine-5-carboxylic acid 9-ethyl-9H-carbazol-3-ylmethyl ester] | < 400 | < 1000 | 
2 | CC1=C(C(=O)OCCCc2ccco2)C(CF)NC(=S)N1 (stereo not shown) [Compound 270, 4-fluoromethyl-6-methyl-2-thioxo-1,2,3,4-tetrahydro-pyrimidine-5-carboxylic acid 3-furan-2-yl-propyl ester] | 5000 | 1000 to 10000 | 
3 | CC1=C(C(=O)OCc2cccc(SC(F)(F)F)c2)C(CO)NC(=S)N1 (stereo not shown) [33″, 4-hydroxymethyl-6-methyl-2-thioxo-1,2,3,4-tetrahydro-pyrimidine-5-carboxylic acid 3-trifluoromethylsulfanyl-benzyl ester] | < 400 | < 1000 | 
4 | COc1cc(COC(=O)C2=C(C)NC(=S)NC2)cc(Br)c1OC [Compound 178, 6-methyl-2-thioxo-1,2,3,4-tetrahydro-pyrimidine-5-carboxylic acid 3-bromo-4,5-dimethoxy-benzyl ester] | 1500 | 1000 to 10000 | 
5 | CC1=C(C(=O)OCc2ccccc2)C(CF)NC(=S)N1 (stereo not shown) [Compound 211, 4-fluoromethyl-6-methyl-2-thioxo-1,2,3,4-tetrahydro-pyrimidine-5-carboxylic acid benzyl ester] | 16000 | 10000 to 20000 | 
6 | CCOC(=O)C1NC(=S)NC(C)=C1C(=O)OCCc1ccsc1 (stereo not shown) [6′, 6-methyl-2-thioxo-1,2,3,4-tetrahydro-pyrimidine-4,5-dicarboxylic acid 4-ethyl ester 5-(2-thiophen-3-yl-ethyl) ester] | > 100000 | > 20000 | 
7 | CC1=C(C(=O)OC2Cc3cscc3C2)CNC(=S)N1 [11′, 6-methyl-2-thioxo-1,2,3,4-tetrahydro-pyrimidine-5-carboxylic acid 5,6-dihydro-4H-cyclopenta[c]thiophen-5-yl ester] | 77000 | > 20000 | 
8 | C#CCOC(=O)C1=C(C)NC(=S)NC1 [Compound 159, 6-methyl-2-thioxo-1,2,3,4-tetrahydro-pyrimidine-5-carboxylic acid prop-2-inyl ester] |  |  | > 100000
9 | CC1=C(C(=O)OCCc2ccsc2F)CNC(=S)N1 [Compound 249, 6-methyl-2-thioxo-1,2,3,4-tetrahydro-pyrimidine-5-carboxylic acid 2-(2-fluoro-thiophen-3-yl)-ethyl ester] | < 400 | < 1000 | 
10 | CC1=C(C(=O)OC2CCCC2)CNC(=S)N1 [Compound 67, 6-methyl-2-thioxo-1,2,3,4-tetrahydro-pyrimidine-5-carboxylic acid cyclopentyl ester] | 6000 | 1000 to 10000 | 
11 | CCOC(=O)OCC1NC(=S)NC(C)=C1C(=O)OCCc1cccc(Cl)c1 (stereo not shown) [49″, 4-ethoxycarbonyloxymethyl-6-methyl-2-thioxo-1,2,3,4-tetrahydro-pyrimidine-5-carboxylic acid 2-(3-chloro-phenyl)-ethyl ester] | 3000 | 1000 to 10000 | 
12 | CC1=C(C(=O)OCc2cc(Cl)ccc2[N+](=O)[O-])C(CO)NC(=S)N1 (stereo not shown) [47″, 4-hydroxymethyl-6-methyl-2-thioxo-1,2,3,4-tetrahydro-pyrimidine-5-carboxylic acid 5-chloro-2-nitro-benzyl ester] | > 100000 | > 20000 | 
13 | CC1=C(C(=O)OCc2cc(C)on2)CNC(=S)N1 [47′, 6-methyl-2-thioxo-1,2,3,4-tetrahydro-pyrimidine-5-carboxylic acid 5-methyl-isoxazol-3-ylmethyl ester] | 100000 | > 20000 | 
14 | CC1=C(C(=O)OCCCc2cccnc2)CNC(=S)N1 [Compound 158, 6-methyl-2-thioxo-1,2,3,4-tetrahydro-pyrimidine-5-carboxylic acid 3-pyridin-3-yl-propyl ester] | > 100000 | > 20000 | 
15 | CC1=C(C(=O)OCc2ccccc2Cl)CNC(=S)N1 [Compound 84, 6-methyl-2-thioxo-1,2,3,4-tetrahydro-pyrimidine-5-carboxylic acid 2-chloro-benzyl ester] | < 400 | < 1000 | 
16 | CCc1ccc(CCOC(=O)C2=C(C)NC(=S)NC2)s1 [Compound 266, 6-methyl-2-thioxo-1,2,3,4-tetrahydro-pyrimidine-5-carboxylic acid 2-(5-ethyl-thiophen-2-yl)-ethyl ester] | 600 | < 1000 | 
17 | CC1=C(C(=O)OCC2(c3ccc(Cl)cc3)CC2)C(CO)NC(=S)N1 (stereo not shown) [52″, 4-hydroxymethyl-6-methyl-2-thioxo-1,2,3,4-tetrahydro-pyrimidine-5-carboxylic acid 1-(4-chloro-phenyl)-cyclopropylmethyl ester] | 10000 | 1000 to 10000 | 

Row | Compound | IC50 [1] [nM] | IC50 [2] [nM] | IC50 (concentration at which 50% of HCV proteins was decreased, Table 2, read-out: IC50) [nM]
18 | COc1ccc(Cl)cc1CCOC(=O)C1=C(C)NC(=S)NC1CO (stereo not shown) [56″, 4-hydroxymethyl-6-methyl-2-thioxo-1,2,3,4-tetrahydro-pyrimidine-5-carboxylic acid 2-(5-chloro-2-methoxy-phenyl)-ethyl ester] | 600 | < 1000 | 
19 | CC1=C(C(=O)OCCS(=O)(=O)c2ccc(C)cc2)CNC(=S)N1 [Compound 201, 6-methyl-2-thioxo-1,2,3,4-tetrahydro-pyrimidine-5-carboxylic acid 2-(toluene-4-sulfonyl)-ethyl ester] | 13000 | 10000 to 20000 | 
20 | CC1=C(C(=O)OCCc2cccc(Cl)c2)C(COC(=O)OCCOC(=O)c2ccccc2)NC(=S)N1 (stereo not shown) [76″, 4-(2-benzoyloxy-ethoxycarbonyloxymethyl)-6-methyl-2-thioxo-1,2,3,4-tetrahydro-pyrimidine-5-carboxylic acid 2-(3-chloro-phenyl)-ethyl ester] | 900 | < 1000 | 
21 | CC1=C(C(=O)OCc2cccc(C(F)(F)F)c2)CNC(=S)N1 [Compound 101, 6-methyl-2-thioxo-1,2,3,4-tetrahydro-pyrimidine-5-carboxylic acid 3-trifluoromethyl-benzyl ester] | < 400 | < 1000 | 
22 | CC1=C(C(=O)OCC2CCCO2)CNC(=S)N1 (stereo not shown) [Compound 161, 6-methyl-2-thioxo-1,2,3,4-tetrahydro-pyrimidine-5-carboxylic acid tetrahydrofuran-2-ylmethyl ester] | > 100000 | > 20000 | 
23 | CC1=C(C(=O)OCc2nc3ccccc3s2)CNC(=S)N1 [Compound 226, 6-methyl-2-thioxo-1,2,3,4-tetrahydro-pyrimidine-5-carboxylic acid benzothiazol-2-ylmethyl ester] | 2200 | 1000 to 10000 | 
24 | CC1=C(C(=O)OCCc2ccc(C)c(F)c2)C(CO)NC(=S)N1 (stereo not shown) [55″, 4-hydroxymethyl-6-methyl-2-thioxo-1,2,3,4-tetrahydro-pyrimidine-5-carboxylic acid 2-(3-fluoro-4-methyl-phenyl)-ethyl ester] | 500 | < 1000 | 
25 | COc1ccc(Cl)cc1CCOC(=O)C1=C(C)NC(=S)NC1CF (stereo not shown) [84′, 4-fluoromethyl-6-methyl-2-thioxo-1,2,3,4-tetrahydro-pyrimidine-5-carboxylic acid 2-(5-chloro-2-methoxy-phenyl)-ethyl ester] | 900 | < 1000 | 
26 | CC1=C(C(=O)OC2Cc3ccccc3C2)CNC(=S)N1 [Compound 124, 6-methyl-2-thioxo-1,2,3,4-tetrahydro-pyrimidine-5-carboxylic acid indan-2-yl ester] | 800 | < 1000 | 
27 | CCCCCCOC(=O)C1=C(C)NC(=S)NC1 [Compound 30, 6-methyl-2-thioxo-1,2,3,4-tetrahydro-pyrimidine-5-carboxylic acid hexyl ester] | 100 | < 1000 | 
28 | CC1=C(C(=O)OCCc2ccc(F)cc2)C(CF)NC(=S)N1 (stereo not shown) [32′, 4-fluoromethyl-6-methyl-2-thioxo-1,2,3,4-tetrahydro-pyrimidine-5-carboxylic acid 2-(4-fluoro-phenyl)-ethyl ester] | 900 | < 1000 | 
29 | CCCN(CC)c1ccc(CCOC(=O)C2=C(C)NC(=S)NC2CO)cc1[N+](=O)[O-] (stereo not shown) [92″, 4-Hydroxymethyl-6-methyl-2-thioxo-1,2,3,4-tetrahydro-pyrimidine-5-carboxylic acid 2-[4-(ethyl-propylamino)-3-nitro-phenyl]-ethyl ester] | 400 | < 1000 | 
30 | CC1=C(C(=O)OCc2ccc(F)cc2Cl)CNC(=S)N1 [Compound 70, 6-methyl-2-thioxo-1,2,3,4-tetrahydro-pyrimidine-5-carboxylic acid 2-chloro-4-fluoro-benzyl ester] | < 500 | < 1000 | 
31 | CC1=C(C(=O)OCc2cc(Cl)cc(Cl)c2)C(CF)NC(=S)N1 (stereo not shown) [89′, 4-fluoromethyl-6-methyl-2-thioxo-1,2,3,4-tetrahydro-pyrimidine-5-carboxylic acid 3,5-dichloro-benzyl ester] | 400 | < 1000 | 
32 | CC1=C(C(=O)OCCCCCc2ccccc2)C(CO)NC(=S)N1 (stereo not shown) [18″, 4-hydroxymethyl-6-methyl-2-thioxo-1,2,3,4-tetrahydro-pyrimidine-5-carboxylic acid 5-phenyl-pentyl ester] | < 400 | < 1000 | 
33 | CC1=C(C(=O)OCC2CCOC2)CNC(=S)N1 (stereo not shown) [Compound 162, 6-methyl-2-thioxo-1,2,3,4-tetrahydro-pyrimidine-5-carboxylic acid tetrahydrofuran-3-ylmethyl ester] | > 100000 | > 20000 | 
34 | CC1=C(C(=O)OCc2ccn(S(=O)(=O)c3ccc(C)cc3)c2)CNC(=S)N1 [Compound 230, 6-methyl-2-thioxo-1,2,3,4-tetrahydro-pyrimidine-5-carboxylic acid 1-(toluene-4-sulfonyl)-1H-pyrrol-3-ylmethyl ester] | < 400 | < 1000 | 
